Results as given in US12649723B2, “Carbonohydrazonoyl dicyanide compounds comprising 2 or more aryl or heteroaryl connected via linker and use thereof” (KOREA INSTITUTE OF SCIENCE AND TECHNOLOGY, priority 2020, dated 2026).

Columns and labels:
Tau-BiFC cells = experiment: Cell viability (cytotoxicity) in tau-BiFC cells, count of stained nuclei; format: cell-based; details: Forskolin-only group = 100% cell viability; for Cell viability: compounds marked *: measured at 3 μM
Method in brief: (§1)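 Aggregation was induced by 30 μM Forskolin co-applied with test compound for 48 h, with screening at 1, 3, 10 μM and dose-response at 0.03–30 μM. Nuclei were stained with Hoechst (2 μg/mL) and counted against Forskolin-only wells for cytotoxicity. Inhibition came from BiFC fluorescence relative to Forskolin-only versus untreated cells, with IC50 by nonlinear regression.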

tau protein = target: T1, tau protein (Homo sapiens, UniProt P10636); experiment: Tau-BiFC cell model: inhibition of tau protein aggregation; format: cell-based; details: for remaining activity at 3 µM: compounds marked *: measured at 3 μM, read-out: Response; for IC50: Tau BiFC in cells, with Forskolin 30 μM, 48 hours
T1 construct: fused on or other part: Split fluorescent-protein halves for BiFC are fused to tau; In the published tau-BiFC line these are Venus VN173 and VC155
T1 sequence (P10636 2-441 isoform P10636-8 limits assumed): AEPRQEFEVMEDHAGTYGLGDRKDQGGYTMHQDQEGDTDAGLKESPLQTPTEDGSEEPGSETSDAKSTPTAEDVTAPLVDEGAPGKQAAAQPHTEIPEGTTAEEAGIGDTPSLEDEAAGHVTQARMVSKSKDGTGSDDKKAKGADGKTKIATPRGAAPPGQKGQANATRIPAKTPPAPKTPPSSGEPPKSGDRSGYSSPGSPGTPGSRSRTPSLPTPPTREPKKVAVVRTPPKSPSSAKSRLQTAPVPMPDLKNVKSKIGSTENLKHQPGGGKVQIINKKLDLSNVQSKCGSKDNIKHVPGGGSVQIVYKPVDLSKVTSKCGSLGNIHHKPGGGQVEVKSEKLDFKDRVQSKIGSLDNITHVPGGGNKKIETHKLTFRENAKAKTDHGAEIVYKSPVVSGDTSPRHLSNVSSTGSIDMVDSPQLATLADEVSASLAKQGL
Method in brief: as §1

CYP2C19 = target: T2, CYP2C19 (Homo sapiens, UniProt P33261); experiment: Inhibitory effect on CYP coenzyme activity, human liver microsomes; format: in vitro ADME; details: compound 10 μM; human liver microsomes 0.25 mg/mL; substrate S-mephenytoin; 15 minutes
T2 construct: human liver microsomes (0.25 mg/mL); from tissue; host or cells: human liver microsomes
T2 sequence (P33261 whole entry): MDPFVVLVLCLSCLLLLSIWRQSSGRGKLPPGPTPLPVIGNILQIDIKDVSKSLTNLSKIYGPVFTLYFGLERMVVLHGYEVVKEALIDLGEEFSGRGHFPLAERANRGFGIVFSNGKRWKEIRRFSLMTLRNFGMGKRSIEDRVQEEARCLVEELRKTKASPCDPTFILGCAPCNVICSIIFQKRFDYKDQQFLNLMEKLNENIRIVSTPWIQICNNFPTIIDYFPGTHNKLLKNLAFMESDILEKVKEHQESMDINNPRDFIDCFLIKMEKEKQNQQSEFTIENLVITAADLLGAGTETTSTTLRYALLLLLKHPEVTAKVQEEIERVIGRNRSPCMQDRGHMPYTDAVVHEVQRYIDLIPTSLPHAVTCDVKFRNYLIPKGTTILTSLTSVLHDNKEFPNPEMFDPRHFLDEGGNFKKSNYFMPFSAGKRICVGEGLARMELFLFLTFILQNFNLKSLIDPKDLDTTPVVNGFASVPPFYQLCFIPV
Method: (§2) The inhibitory effects of the compounds prepared according to Examples 1 to 175 on CYP coenzyme activity were identified. Specifically, human liver microsomes (0.25 mg/mL), a 0.1 M phosphate buffer solution (pH 7.4), a substrate drug cocktail of five types of drug metabolism enzymes (50 μM phenacetin, 10 μM diclofenac, 100 μM S-mephenytoin, 5 μM dextromethorphan, and 2.5 μM midazolam), and the compound at a concentration of 0 μM or 10 μM were mixed and pre-cultured at 37° C. for 5 minutes, and then further cultured at 37° C. for 15 minutes together with an NADPH generation system solution added thereto. Thereafter, the reaction was terminated by adding an acetonitrile solution containing an internal standard material (terfenadine) and centrifuged for 5 minutes (14,000 rpm, 4° C.), and then a supernatant was injected into an LC-MS/MS system for simultaneous analysis of metabolites of the substrate drugs to thereby evaluate the inhibitory effects on drug metabolism.
(§3) Metabolites of each CYP coenzyme indicator drug generated through the reaction were analyzed using the Shimadzu Nexera XR system and TSQ Vantage (Thermo). In an HPLC column, Kinetex C18 (2.1 mm×100 mm, 2.6 μm, particle size; Phenomenex, USA) was used, and mobile phases were (A) distilled water containing 0.1% formic acid and (B) acetonitrile containing 0.1% formic acid, and a gradient program shown in Table 3 was applied thereto.
(§4) The generated metabolites were quantified using a multiple reaction monitoring (MRM) quantification mode, and Xcalibur (version 1.6.1) was used for data analysis. Inhibitory effects of the novel compound prepared according to the examples of the present invention on CYP coenzyme activity are shown in Table 4 below.

CYP2D6 = target: T3, CYP2D6 (Homo sapiens, UniProt P10635); experiment: as above; format: in vitro ADME; details: compound 10 μM; human liver microsomes 0.25 mg/mL; substrate dextromethorphan; 15 minutes
T3 construct: human liver microsomes (0.25 mg/mL); from tissue; host or cells: human liver microsomes
T3 sequence (P10635 whole entry): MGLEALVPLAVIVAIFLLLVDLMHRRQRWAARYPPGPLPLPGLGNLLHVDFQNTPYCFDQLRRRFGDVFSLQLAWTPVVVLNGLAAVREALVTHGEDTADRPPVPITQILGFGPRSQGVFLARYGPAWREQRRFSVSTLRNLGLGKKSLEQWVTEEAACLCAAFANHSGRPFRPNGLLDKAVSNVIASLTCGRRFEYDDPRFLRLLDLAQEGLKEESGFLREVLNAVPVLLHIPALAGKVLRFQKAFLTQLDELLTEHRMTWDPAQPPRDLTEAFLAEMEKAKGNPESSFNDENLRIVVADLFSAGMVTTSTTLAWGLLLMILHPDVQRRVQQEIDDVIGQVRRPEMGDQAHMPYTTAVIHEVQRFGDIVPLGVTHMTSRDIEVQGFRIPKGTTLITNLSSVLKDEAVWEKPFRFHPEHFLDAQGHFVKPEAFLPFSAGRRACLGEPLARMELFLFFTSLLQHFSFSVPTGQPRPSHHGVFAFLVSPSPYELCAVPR
Method: as §2, §3, §4

CYP1A2 = target: T4, CYP1A2 (Homo sapiens, UniProt P05177); experiment: as above; format: in vitro ADME; details: compound 10 μM; human liver microsomes 0.25 mg/mL; substrate phenacetin; 15 minutes
T4 construct: human liver microsomes (0.25 mg/mL); from tissue; host or cells: human liver microsomes
T4 sequence (P05177 1-516): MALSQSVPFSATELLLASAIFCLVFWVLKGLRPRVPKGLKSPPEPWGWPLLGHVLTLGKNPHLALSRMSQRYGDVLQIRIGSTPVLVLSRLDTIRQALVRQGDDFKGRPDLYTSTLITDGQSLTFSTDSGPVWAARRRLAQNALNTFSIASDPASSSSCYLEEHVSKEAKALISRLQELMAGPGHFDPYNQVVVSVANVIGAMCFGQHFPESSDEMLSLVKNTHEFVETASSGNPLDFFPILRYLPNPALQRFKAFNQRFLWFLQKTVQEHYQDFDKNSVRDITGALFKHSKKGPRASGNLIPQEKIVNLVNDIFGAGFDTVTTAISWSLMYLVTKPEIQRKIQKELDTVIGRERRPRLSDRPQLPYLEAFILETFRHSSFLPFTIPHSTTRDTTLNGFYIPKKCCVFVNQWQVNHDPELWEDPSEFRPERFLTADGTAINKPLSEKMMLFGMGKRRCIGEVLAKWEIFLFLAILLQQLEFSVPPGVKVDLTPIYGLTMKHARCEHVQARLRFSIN
Method: as §2, §3, §4

CYP3A4 = target: T5, CYP3A4 (Homo sapiens, UniProt P08684); experiment: as above; format: in vitro ADME; details: compound 10 μM; human liver microsomes 0.25 mg/mL; substrate midazolam; 15 minutes
T5 construct: human liver microsomes (0.25 mg/mL); from tissue; host or cells: human liver microsomes
T5 sequence (P08684 whole entry): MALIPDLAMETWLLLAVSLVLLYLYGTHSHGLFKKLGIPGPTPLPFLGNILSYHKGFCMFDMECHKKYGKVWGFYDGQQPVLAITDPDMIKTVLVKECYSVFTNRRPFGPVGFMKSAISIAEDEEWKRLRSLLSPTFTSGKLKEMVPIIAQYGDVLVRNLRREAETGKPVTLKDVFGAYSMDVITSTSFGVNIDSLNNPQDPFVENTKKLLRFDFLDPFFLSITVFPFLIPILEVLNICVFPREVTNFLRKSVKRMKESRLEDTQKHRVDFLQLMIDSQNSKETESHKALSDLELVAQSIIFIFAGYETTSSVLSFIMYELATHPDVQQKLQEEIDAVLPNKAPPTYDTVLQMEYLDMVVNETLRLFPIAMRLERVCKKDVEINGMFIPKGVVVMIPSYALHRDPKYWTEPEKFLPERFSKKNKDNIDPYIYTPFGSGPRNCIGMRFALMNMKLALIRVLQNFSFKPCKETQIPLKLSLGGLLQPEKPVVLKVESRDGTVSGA
Method: as §2, §3, §4

CYP2C9 = target: T6, CYP2C9 (Homo sapiens, UniProt P11712); experiment: as above; format: in vitro ADME; details: compound 10 μM; human liver microsomes 0.25 mg/mL; substrate diclofenac; 15 minutes
T6 construct: human liver microsomes (0.25 mg/mL); from tissue; host or cells: human liver microsomes
T6 sequence (P11712 whole entry): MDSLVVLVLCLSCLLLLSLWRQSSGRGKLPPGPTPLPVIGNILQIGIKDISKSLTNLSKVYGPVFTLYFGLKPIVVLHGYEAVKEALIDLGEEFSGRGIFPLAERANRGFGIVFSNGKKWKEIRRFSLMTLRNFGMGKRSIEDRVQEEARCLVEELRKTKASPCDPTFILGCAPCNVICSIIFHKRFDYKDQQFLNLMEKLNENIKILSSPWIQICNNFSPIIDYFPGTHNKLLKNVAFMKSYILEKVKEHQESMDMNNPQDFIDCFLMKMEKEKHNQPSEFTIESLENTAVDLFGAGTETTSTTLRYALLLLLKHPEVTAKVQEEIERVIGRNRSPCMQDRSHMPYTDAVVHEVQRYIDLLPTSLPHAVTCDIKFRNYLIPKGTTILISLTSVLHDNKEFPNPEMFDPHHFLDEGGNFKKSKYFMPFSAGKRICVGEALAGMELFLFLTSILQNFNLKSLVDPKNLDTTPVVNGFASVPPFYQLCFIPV
Method: as §2, §3, §4

[1] = Liver microsome stability; format: in vitro ADME, human; details: amount of substrate remaining; compound 1 μM, 30 minutes, 37° C., NADPH
Method: (§5) The stability of liver microsomes due to the compounds prepared according to Examples 1 to 175 was confirmed. Specifically, four types of liver microsomes (human, dog, rat, and mouse, each 0.25 mg/mL), a 0.1 M phosphate buffer solution (pH 7.4), and each of the compounds at a concentration of 1 μM were mixed and pre-cultured at 37° C. for 5 minutes and further cultured at 37° C. for 30 minutes together with an NADPH generation system solution added thereto. Thereafter, the reaction was terminated by adding an acetonitrile solution containing an internal standard material (chloropropamide) and centrifuged for 5 minutes (14,000 rpm, 4° C.), and then a supernatant was injected into an LC-MS/MS system for analysis of substrate drugs to thereby evaluate metabolic stability due to 8 types of compounds.
(§6) The amount of the substrate remaining after the reaction was analyzed using the Shimadzu Nexera XR system and TSQ Vantage (Thermo). In an HPLC column, Kinetex XB-C18 (2.1 mm×100 mm, particle size of 2.6 μm; Phenomenex, USA) was used, and mobile phases were (A) distilled water containing 0.1% formic acid and (B) acetonitrile containing 0.1% formic acid. Analyst software (version 1.6.3) and Xcalibur (version 1.6.1) were used for data analysis.

[2] = Liver microsome stability; format: in vitro ADME, mouse; details: amount of substrate remaining; compound 1 μM, 30 minutes, 37° C., NADPH
Method: as §5, §6

[3] = Liver microsome stability; format: in vitro ADME, rat; details: amount of substrate remaining; compound 1 μM, 30 minutes, 37° C., NADPH
Method: as §5, §6

[4] = 48 h, Forskolin-only group = 100% tau protein-aggregated state

Compound | Cell viability (Tau-BiFC cells) [%] | remaining activity at 3 µM (tau protein; [4]) [%] | CYP2C19 (CYP2C19) | CYP2D6 (CYP2D6) | CYP1A2 (CYP1A2) | CYP3A4 (CYP3A4) | CYP2C9 (CYP2C9) | IC50 (tau protein) [µM] | Cell viability (% @10 μM) (Tau-BiFC cells; compound 10 μM) [%] | remaining activity at 10 µM (tau protein; 48 h, compound 10 μM, BiFC fluorescence, Forskolin-only group = 100% tau protein-aggregated state, read-out: Response (% @10 μM)) [%] | Human (%) [1] [%] | Mouse (%) [2] [%] | Rat (%) [3] [%]
Cc1cnc(COc2ccc(NN=C(C#N)C#N)cc2)cn1 [Compound 138, (4-((5-methylpyrazin-2-yl)methoxy)phenyl)carbonohydrazonoyl dicyanide] | 133 | 15 | >100 | 92.7 | 97.4 | 89.4 | 92.5 | – | – | – | – | – | –
COc1cc(NN=C(C#N)C#N)ccc1OCc1cnccn1 [Compound 159, (3-methoxy-4-(pyrazin-2-ylmethoxy)phenyl)carbonohydrazonoyl dicyanide] | 114 | -40 | 88 | 86.1 | 42.4 | 82.1 | 54.7 | 0.007 | – | – | – | – | –
COc1cc(NN=C(C#N)C#N)ccc1OCc1ccccc1 [Compound 153, (4-(benzyloxy)-3-methoxyphenyl)carbonohydrazonoyl dicyanide] | 122 | -43 | 100 | 90.7 | 67.9 | 98.9 | 44.1 | 0.037 | – | – | – | – | –
COc1cc(NN=C(C#N)C#N)ccc1OCc1cccnc1 [Compound 160, (3-methoxy-4-(pyridin-3-ylmethoxy)phenyl)carbonohydrazonoyl dicyanide] | 111 | -33 | 68.5 | 59.7 | 5.8 | 17.9 | 6.5 | 0.007 | – | – | – | – | –
CC(Oc1ccc(NN=C(C#N)C#N)cc1)c1cccnc1 (centres unmarked) [Compound 140, (4-(1-(pyridin-3-yl)ethoxy)phenyl)carbonohydrazonoyl Dicyanide] | 135 | 18 | >100 | 69.6 | 96.7 | 30.8 | 11.7 | – | – | – | – | – | –
N#CC(C#N)=NNc1ccc(OCc2cccnc2)cc1 [Compound 124, (4-(pyridin-3-ylmethoxy)phenyl)carbonohydrazonoyl dicyanide] | – | – | 69.9 | 46.6 | 23.4 | 37.5 | 4.4 | 0.62 | 140.9 | 0 | – | – | –
COc1cc(NN=C(C#N)C#N)ccc1OCc1nc2ccccc2s1 [Compound 165, (4-(benzo[d]thiazol-2-ylmethoxy)-3-methoxyphenyl)carbonohydrazonoyl dicyanide] | 113 | -40 | – | – | – | – | – | – | – | – | 42.4 | 69.6 | 42.4
COc1cc(NN=C(C#N)C#N)ccc1OCc1cc2ccccc2s1 [Compound 158, (4-(benzo[b]thiophen-2-ylmethoxy)-3-methoxyphenyl)carbonohydrazonoyl dicyanide] | 96 | -33 | – | – | – | – | – | 0.268 | – | – | 36.9 | 73.7 | 48.2
Cc1cnc(COc2ccc(NN=C(C#N)C#N)cc2C)cn1 [Compound 147, (3-methyl-4-((5-methylpyrazin-2-yl)methoxy)phenyl)carbonohydrazonoyl dicyanide] | 98 | -19 | – | – | – | – | – | 0.147 | – | – | 86.4 | 91.3 | 89
Cc1cc(NN=C(C#N)C#N)ccc1OCc1nc2ccccc2s1 [Compound 157, (4-(benzo[d]thiazol-2-ylmethoxy)-3-methylphenyl)carbonohydrazonoyl dicyanide] | 124 | 8 | – | – | – | – | – | – | – | – | 69.1 | 33.2 | 46
COc1cc(NN=C(C#N)C#N)ccc1OCc1nc2ccccc2o1 [Compound 166, (4-(benzo[d]oxazol-2-ylmethoxy)-3-methoxyphenyl)carbonohydrazonoyl dicyanide] | 121 | -43 | – | – | – | – | – | 0.214 | – | – | 6.6 | 68.1 | 6.5
COc1cc(NN=C(C#N)C#N)ccc1OCc1cccnn1 [Compound 164, (3-methoxy-4-(pyridazin-3-ylmethoxy)phenyl)carbonohydrazonoyl dicyanide] | 109 | -1 | – | – | – | – | – | 0.096 | – | – | 96.8 | 24.6 | 29.1
